Data published in patent publication US12723063B2, “GIPR-agonist compounds” (Eli Lilly and Company, priority 2019, dated 2026).
*1 amine or outer side, *2 acyl side, *3 side chain or, on linkers, in order; H or OH if unused. Where a SMILES comes first, the peptide text is derived from it. Side-chain parts run from the residue outwards. [ ]: non-standard residue; d: D form. The star is where a group is joined. C20 diacid = O=C(O)CCCCCCCCCCCCCCCCCCC(=O)*; C18 diacid = O=C(O)CCCCCCCCCCCCCCCCC(=O)*; αMePhe(2-F) = C[C@](N)(Cc1ccccc1F)C(=O)O; γGlu = O=C(O)[C@H](CCC(=O)[*:2])N[*:1]; αMeF = C[C@](N)(Cc1ccccc1)C(=O)O; AEEA = NCCOCCOCC(=O)O; Aib = CC(C)(N)C(=O)O

Assays:
human GIPR = target: T1, human GIPR (Homo sapiens, UniProt P48546); test: [125I]-GIP binding, SPA with WGA beads, 0.1% bacitracin; conditions: geometric mean, read-out: hGIPR Ki
T1 construct: expressed in transfected cells; crude membranes
T1 sequence (P48546 22-466): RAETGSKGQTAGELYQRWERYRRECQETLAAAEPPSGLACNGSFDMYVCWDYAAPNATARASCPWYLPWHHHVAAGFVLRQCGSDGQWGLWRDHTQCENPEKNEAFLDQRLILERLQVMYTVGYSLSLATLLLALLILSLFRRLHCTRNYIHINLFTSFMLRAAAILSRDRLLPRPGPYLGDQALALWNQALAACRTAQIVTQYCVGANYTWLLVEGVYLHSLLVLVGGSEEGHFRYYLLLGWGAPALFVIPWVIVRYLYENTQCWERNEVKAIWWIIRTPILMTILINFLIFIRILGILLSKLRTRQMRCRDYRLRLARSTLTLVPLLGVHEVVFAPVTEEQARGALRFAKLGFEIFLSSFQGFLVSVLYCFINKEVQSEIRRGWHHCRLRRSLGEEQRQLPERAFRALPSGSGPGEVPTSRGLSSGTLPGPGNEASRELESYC
Outline: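 Ki values are geometric means (SEM, n independent days), derived from four-parameter nonlinear regression of IC50. Membranes came from hGIPR-expressing CHO cells.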

human GLP-1R = target: T2, human GLP-1R (Homo sapiens, UniProt P43220); test: [125I]-GLP-1 binding, SPA with WGA beads, 0.1% bacitracin; conditions: geometric mean, read-out: hGLP1R Ki
T2 construct: expressed in transfected cells; crude membranes
T2 sequence (P43220 24-463): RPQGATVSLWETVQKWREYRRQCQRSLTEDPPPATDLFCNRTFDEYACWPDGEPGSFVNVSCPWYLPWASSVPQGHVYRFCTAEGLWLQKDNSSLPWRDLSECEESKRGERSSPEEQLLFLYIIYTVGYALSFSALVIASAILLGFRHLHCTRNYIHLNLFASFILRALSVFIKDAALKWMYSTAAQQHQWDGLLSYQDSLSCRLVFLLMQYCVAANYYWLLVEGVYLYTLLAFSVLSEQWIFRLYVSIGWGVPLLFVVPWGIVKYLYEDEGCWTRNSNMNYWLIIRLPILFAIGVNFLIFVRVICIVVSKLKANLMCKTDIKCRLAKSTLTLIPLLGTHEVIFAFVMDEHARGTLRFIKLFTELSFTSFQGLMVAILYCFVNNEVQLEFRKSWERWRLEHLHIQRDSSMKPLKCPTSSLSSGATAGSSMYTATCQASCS
Outline: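 Binding buffer was 25 mM HEPES pH 7.4 with 2.5 mM CaCl2, 1 mM MgCl2, 0.1% (w/v) bacitracin, 0.003% Tween-20 and EDTA-free protease inhibitors. Four-parameter regression gave IC50, converted to Ki (geometric mean, SEM, n independent days).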

Row | SMILES | Ki (human GIPR) [nM] | Ki (human GLP-1R) [nM]
1 | CC[C@H](C)[C@H](NC(=O)[C@H](CO)NC(=O)[C@H](Cc1ccc(O)cc1)NC(=O)[C@H](CC(=O)O)NC(=O)[C@H](CO)NC(=O)[C@@H](NC(=O)[C@](C)(Cc1ccccc1F)NC(=O)[C@@H](NC(=O)CNC(=O)[C@H](CCC(=O)O)NC(=O)C(C)(C)NC(=O)[C@@H](N)Cc1ccc(O)cc1)[C@@H](C)O)[C@@H](C)CC)C(=O)N[C@@H](C)C(=O)N[C@@H](CC(C)C)C(=O)N[C@@H](CC(=O)O)C(=O)N[C@@H](CCCCN)C(=O)N[C@H](C(=O)N[C@@H](Cc1c[nH]cn1)C(=O)N[C@@H](CCC(N)=O)C(=O)NC(C)(C)C(=O)N[C@@H](CCC(=O)O)C(=O)N[C@@H](Cc1ccccc1)C(=O)N[C@H](C(=O)N[C@@H](CC(N)=O)C(=O)N[C@@H](Cc1ccc(O)cc1)C(=O)N[C@@H](CCCCNC(=O)COCCOCCNC(=O)COCCOCCNC(=O)CC[C@H](NC(=O)CCCCCCCCCCCCCCCCC(=O)O)C(=O)O)C(=O)N[C@@H](CC(C)C)C(=O)N[C@@H](C)C(=O)NCC(=O)NCC(=O)N1CCC[C@H]1C(=O)N[C@@H](CO)C(=O)N[C@@H](CO)C(=O)NCC(=O)N[C@@H](C)C(=O)N1CCC[C@H]1C(=O)N1CCC[C@H]1C(=O)N1CCC[C@H]1C(=O)N[C@@H](CO)C(N)=O)C(C)C)[C@@H](C)CC [Example 94] (H-Y[Aib]EGT[αMePhe(2-F)]ISDYSIALDKIHQ[Aib]EFVNYK([AEEA-AEEA-γGlu-C18 diacid])LAGGPSSGAPPPS-NH2) | 0.031 | > 909
2 | CC[C@H](C)[C@H](NC(=O)[C@H](CO)NC(=O)[C@H](Cc1ccc(O)cc1)NC(=O)[C@H](CC(=O)O)NC(=O)[C@H](CO)NC(=O)[C@@H](NC(=O)[C@](C)(Cc1ccccc1F)NC(=O)[C@@H](NC(=O)CNC(=O)[C@H](CCC(=O)O)NC(=O)C(C)(C)NC(=O)[C@@H](N)Cc1ccc(O)cc1)[C@@H](C)O)[C@@H](C)CC)C(=O)N[C@@H](C)C(=O)N[C@@H](CC(C)C)C(=O)N[C@@H](CC(=O)O)C(=O)N[C@@H](CCCCN)C(=O)N[C@H](C(=O)N[C@@H](Cc1c[nH]cn1)C(=O)N[C@@H](CCC(N)=O)C(=O)NC(C)(C)C(=O)N[C@@H](CCC(=O)O)C(=O)N[C@@H](Cc1ccccc1)C(=O)N[C@H](C(=O)N[C@@H](CC(N)=O)C(=O)N[C@@H](Cc1ccc(O)cc1)C(=O)N[C@@H](CCCCNC(=O)COCCOCCNC(=O)COCCOCCNC(=O)CC[C@H](NC(=O)CCCCCCCCCCCCCCCCCCC(=O)O)C(=O)O)C(=O)N[C@@H](CC(C)C)C(=O)N[C@@H](CCC(=O)O)C(=O)NCC(=O)NCC(=O)N1CCC[C@H]1C(=O)N[C@@H](CO)C(=O)N[C@@H](CO)C(=O)NCC(=O)N[C@@H](C)C(=O)N1CCC[C@H]1C(=O)N1CCC[C@H]1C(=O)N1CCC[C@H]1C(=O)N[C@@H](CO)C(N)=O)C(C)C)[C@@H](C)CC [Example 95] (H-Y[Aib]EGT[αMePhe(2-F)]ISDYSIALDKIHQ[Aib]EFVNYK([AEEA-AEEA-γGlu-C20 diacid])LEGGPSSGAPPPS-NH2) | 0.0255 | 832
3 | CC[C@H](C)[C@H](NC(=O)[C@H](CO)NC(=O)[C@H](Cc1ccc(O)cc1)NC(=O)[C@H](CC(=O)O)NC(=O)[C@H](CO)NC(=O)[C@@H](NC(=O)[C@H](Cc1ccccc1)NC(=O)[C@@H](NC(=O)CNC(=O)[C@H](CCC(=O)O)NC(=O)C(C)(C)NC(=O)[C@@H](N)Cc1ccc(O)cc1)[C@@H](C)O)[C@@H](C)CC)C(=O)N[C@@H](C)C(=O)N[C@@H](CC(C)C)C(=O)N[C@@H](CC(=O)O)C(=O)N[C@@H](CCCCN)C(=O)N[C@H](C(=O)N[C@@H](Cc1c[nH]cn1)C(=O)N[C@@H](CCC(N)=O)C(=O)NC(C)(C)C(=O)N[C@@H](CCC(=O)O)C(=O)N[C@@H](Cc1ccccc1)C(=O)N[C@H](C(=O)N[C@@H](CC(N)=O)C(=O)N[C@@H](Cc1ccc(O)cc1)C(=O)N[C@@H](CCCCNC(=O)COCCOCCNC(=O)COCCOCCNC(=O)CC[C@H](NC(=O)CCCCCCCCCCCCCCCCCCC(=O)O)C(=O)O)C(=O)N[C@@H](CC(C)C)C(=O)N[C@@H](C)C(=O)NCC(=O)NCC(=O)N1CCC[C@H]1C(=O)N[C@@H](CO)C(=O)N[C@@H](CO)C(=O)NCC(=O)N[C@@H](C)C(=O)N1CCC[C@H]1C(=O)N1CCC[C@H]1C(=O)N1CCC[C@H]1C(=O)N[C@@H](CO)C(N)=O)C(C)C)[C@@H](C)CC [Example 96] (H-Y[Aib]EGTFISDYSIALDKIHQ[Aib]EFVNYK([AEEA-AEEA-γGlu-C20 diacid])LAGGPSSGAPPPS-NH2) | 0.232 | > 908
4 | CC[C@H](C)[C@H](NC(=O)[C@H](CO)NC(=O)[C@H](Cc1ccc(O)cc1)NC(=O)[C@H](CC(=O)O)NC(=O)[C@H](CO)NC(=O)[C@@H](NC(=O)[C@](C)(Cc1ccccc1)NC(=O)[C@@H](NC(=O)CNC(=O)[C@H](CCC(=O)O)NC(=O)C(C)(C)NC(=O)[C@@H](N)Cc1ccc(O)cc1)[C@@H](C)O)[C@@H](C)CC)C(=O)N[C@@H](C)C(=O)N[C@@H](CC(C)C)C(=O)N[C@@H](CC(=O)O)C(=O)N[C@@H](CCCCN)C(=O)N[C@H](C(=O)N[C@@H](Cc1c[nH]cn1)C(=O)N[C@@H](CCC(N)=O)C(=O)NC(C)(C)C(=O)N[C@@H](CCC(=O)O)C(=O)N[C@@H](Cc1ccccc1)C(=O)N[C@H](C(=O)N[C@@H](CC(N)=O)C(=O)N[C@@H](Cc1ccc(O)cc1)C(=O)N[C@@H](CCCCNC(=O)COCCOCCNC(=O)COCCOCCNC(=O)CC[C@H](NC(=O)CCCCCCCCCCCCCCCCCCC(=O)O)C(=O)O)C(=O)N[C@@H](CC(C)C)C(=O)N[C@@H](C)C(=O)NCC(=O)NCC(=O)N1CCC[C@H]1C(=O)N[C@@H](CO)C(=O)N[C@@H](CO)C(=O)NCC(=O)N[C@@H](C)C(=O)N1CCC[C@H]1C(=O)N1CCC[C@H]1C(=O)N1CCC[C@H]1C(=O)N[C@@H](CO)C(N)=O)C(C)C)[C@@H](C)CC [Example 97] (H-Y[Aib]EGT[αMeF]ISDYSIALDKIHQ[Aib]EFVNYK([AEEA-AEEA-γGlu-C20 diacid])LAGGPSSGAPPPS-NH2) | 0.0249 | 570
5 | CC[C@H](C)[C@H](NC(=O)[C@H](CO)NC(=O)[C@H](Cc1ccc(O)cc1)NC(=O)[C@H](CC(=O)O)NC(=O)[C@H](CO)NC(=O)[C@@H](NC(=O)[C@](C)(Cc1ccccc1F)NC(=O)[C@@H](NC(=O)CNC(=O)[C@H](CCC(=O)O)NC(=O)C(C)(C)NC(=O)[C@@H](N)Cc1ccc(O)cc1)[C@@H](C)O)[C@@H](C)CC)C(=O)N[C@@H](C)C(=O)N[C@@H](CC(C)C)C(=O)N[C@@H](CC(=O)O)C(=O)N[C@@H](CCCCN)C(=O)N[C@H](C(=O)N[C@@H](Cc1c[nH]cn1)C(=O)N[C@@H](CCC(N)=O)C(=O)NC(C)(C)C(=O)N[C@@H](CCC(=O)O)C(=O)N[C@@H](Cc1ccccc1)C(=O)N[C@H](C(=O)N[C@@H](CC(N)=O)C(=O)N[C@@H](Cc1ccc(O)cc1)C(=O)N[C@@H](CCCCNC(=O)COCCOCCNC(=O)COCCOCCNC(=O)CC[C@H](NC(=O)CCCCCCCCCCCCCCCCCCC(=O)O)C(=O)O)C(=O)N[C@@H](CC(C)C)C(=O)N[C@@H](C)C(=O)NCC(=O)NCC(=O)N1CCC[C@H]1C(=O)N[C@@H](CO)C(=O)N[C@@H](CO)C(=O)NCC(=O)N[C@@H](C)C(=O)N1CCC[C@H]1C(=O)N1CCC[C@H]1C(=O)N1CCC[C@H]1C(=O)N[C@@H](CO)C(N)=O)C(C)C)[C@@H](C)CC [Example 98] (H-Y[Aib]EGT[αMePhe(2-F)]ISDYSIALDKIHQ[Aib]EFVNYK([AEEA-AEEA-γGlu-C20 diacid])LAGGPSSGAPPPS-NH2) | 0.0195 | 311
6 | CC[C@H](C)[C@H](NC(=O)[C@H](CO)NC(=O)[C@H](Cc1ccc(O)cc1)NC(=O)[C@H](CC(=O)O)NC(=O)[C@H](CO)NC(=O)[C@@H](NC(=O)[C@](C)(Cc1ccccc1F)NC(=O)[C@@H](NC(=O)CNC(=O)[C@H](CCC(=O)O)NC(=O)C(C)(C)NC(=O)[C@@H](N)Cc1ccc(O)cc1)[C@@H](C)O)[C@@H](C)CC)C(=O)N[C@@H](C)C(=O)N[C@@H](CC(C)C)C(=O)N[C@@H](CC(=O)O)C(=O)N[C@@H](CCCCN)C(=O)N[C@H](C(=O)N[C@@H](Cc1c[nH]cn1)C(=O)N[C@@H](CCC(N)=O)C(=O)NC(C)(C)C(=O)N[C@@H](CC(=O)O)C(=O)N[C@@H](Cc1ccccc1)C(=O)N[C@H](C(=O)N[C@@H](CCC(=O)O)C(=O)N[C@@H](Cc1ccc(O)cc1)C(=O)N[C@@H](CCCCNC(=O)COCCOCCNC(=O)COCCOCCNC(=O)CC[C@H](NC(=O)CCCCCCCCCCCCCCCCCCC(=O)O)C(=O)O)C(=O)N[C@@H](CC(C)C)C(=O)N[C@@H](CCC(=O)O)C(=O)NCC(=O)NCC(=O)N1CCC[C@H]1C(=O)N[C@@H](CO)C(=O)N[C@@H](CO)C(=O)NCC(=O)N[C@@H](C)C(=O)N1CCC[C@H]1C(=O)N1CCC[C@H]1C(=O)N1CCC[C@H]1C(=O)N[C@@H](CO)C(N)=O)C(C)C)[C@@H](C)CC [Example 99] (H-Y[Aib]EGT[αMePhe(2-F)]ISDYSIALDKIHQ[Aib]DFVEYK([AEEA-AEEA-γGlu-C20 diacid])LEGGPSSGAPPPS-NH2) | 0.0341 | > 901
